The IC50 is the point on the concentration scale where inhibition reaches its midpoint. High values mean a need for much substance, low ones inhibition by little substance.

Data on 28 compounds can be found in patent publication US5220050A, “Peptide mimetic compounds useful as platelet aggregation inhibitors” (G. D. Searle & Co., priority 1991, dated 1993).

Structures can show the parent of a compound that is named as a salt.

Assay [1] deals with collagen induced platelet aggregation. Kind of assay: Inhibition of ex vivo collagen induced aggregation after administration to dogs. The class given is in vivo, dogs (Beagles). The note with it: dog, intragastric or intravenous; for inhibition in vivo at 30 mg/kg / inhibition in vivo at 20 mg/kg / inhibition in vivo at 10 mg/kg: Canis lupus familiaris, Platelet, read-out: Max % Inhibition. As for the experimental part:
The purpose of this assay is to determine the effects of antiplatelet compounds on ex vivo collagen induced platelet aggregation when administered either intravenously or orally to dogs.
Pretreatment (control) blood samples are drawn from either conscious or anesthetized dogs (Beagles) and centrifuged to prepare platelet rich plasma (PRP). Aggregatory response to collagen is measured in an aggregometer and used as Control.
In Table B the designation "NT" means "Not Tested". Also in Table B, two readings given in a single box indicate that two trials, rather than a single trial, were run for that particular compound in that particular assay.

Assay [2] concerns Platelet Aggregation in Dog PRP. Kind of assay: In-Vitro Platelet Aggregation in PRP (ADP induced). The class given is cell-based. The note with it: Canis lupus familiaris, Platelet, in-vitro. How it is done: Healthy male or female dogs were fasted for 8 hours prior to drawing blood; then 30 ml whole blood was collected using a butterfly needle and 30 cc plastic syringe with 3 ml of 0.129 M buffered sodium citrate (3.8%). The syringe was rotated carefully as blood was drawn to mix the citrate. Platelet-rich plasma (PRP) was prepared by centrifugation at 975×g for 3.17 minutes at room temperature, allowing the centrifuge to coast to a stop without braking. The PRP was removed from the blood with a plastic pipette and placed in a plastic capped, 50 ml Corning conical sterile centrifuge tube which was held at room temperature. Platelet poor plasma (PPP) was prepared by centrifuging the remaining blood at 2000×g for 15 minutes at room temperature allowing the centrifuge to coast to a stop without braking. The PRP was adjusted with PPP to a count of 2-3×10^8 platelets per ml. 400 μl of the PRP preparation and 50 μl of the compound to be tested or saline were preincubated for 1 minute at 37° C. in a BioData aggregometer (BioData, Horsham, Pa.). 50 μl of adenosine 5'diphosphate (ADP) (50 μm final concentration) was added to the cuvettes and the aggregation was monitored for 1 minute. All compounds are tested in duplicate. Results are calculated as follows:
Percent of control=[(maximal OD minus initial OD of compound) divided by (maximal OD minus initial OD of control saline)]×100. The % inhibition=100-(percent of control).

`C=CC(CC(=O)OCC)NC(=O)CCCCc1ccc(C(=N)N)cc1` (centres unmarked) [ethyl 3-[[5-[4-(aminoiminomethyl)phenyl]-1-oxopentyl]amino]-4-pentenoate]: in assay [1] (dose 30 mg/Kg), the inhibition in vivo at 30 mg/kg worked out at 100%.
As to `CCOC(=O)CC(NC(=O)CCCCc1ccc(C(=N)N)cc1)c1ccc(-c2ccccc2)cc1` (stereo not drawn) [ethyl β-[[5-[4-(aminoiminomethyl)phenyl]-1-oxopentyl]amino][1,1'-biphenyl]-4-propanoate], the inhibition in vivo at 30 mg/kg in assay [1] (dose 30 mg/Kg) came to 0%.
Regarding `CCOC(=O)CC(NC(=O)CCCCc1ccc(C(=N)N)cc1)c1ccc(OCC)cc1` (stereo not drawn) [ethyl β-[[5-[4-(aminoiminomethyl)phenyl]-1-oxopentyl]amino]-4-ethoxybenzenepropanoate], in assay [1] (dose 20 mg/Kg), the inhibition in vivo at 20 mg/kg was found to be 0% and the Duration came out at 0 h.
On to `CCOC(=O)CC(C)NC(=O)CCCCc1ccc(C(=N)N)cc1` (centres unmarked) [Ethyl 3-[[5-[4-(aminoiminomethyl)phenyl]-1-oxopentyl]amino]butanoate], for which the IC50 in assay [2] came to 5 µM. The inhibition in vivo at 10 mg/kg in assay [1] (dose 10 mg/Kg) stood at 90%. Also, in assay [1] (dose 30 mg/Kg), the inhibition in vivo at 30 mg/kg turned out to be 100% and the Duration was above 24 h.
Regarding `CCOC(=O)CC(NC(=O)CCCCc1ccc(C(=N)N)cc1)c1ccc2c(c1)OCO2` (stereo not drawn) [ethyl β-[[5-[4-(aminoiminomethyl)phenyl]-1-oxopentyl]amino]-1,3-benzodioxole-5-propanoate], in assay [1] (dose 10 mg/Kg), the inhibition in vivo at 10 mg/kg was 100% and the Duration amounted to 5 h.
Consider `N=C(N)c1ccc(CCCCC(=O)NC(CC(=O)O)c2ccccc2)cc1` (stereo not drawn) [β-[[5-4-(aminoiminomethyl)phenyl]-1-oxopentyl]amino]benzenepropanoic acid, acetate salt], for which the half-maximal inhibitory concentration (IC50) in assay [2] was 5.3 µM. Besides, in assay [1] (dose 30 mg/Kg), the inhibition in vivo at 30 mg/kg is 34% and the Duration was below 2 h.
`CCOC(=O)CC(NC(=O)CCCCc1ccc(C(=N)N)cc1)c1ccccc1` (stereo not drawn) [Ethyl β-[[5-[4-(aminoiminomethyl)phenyl]-1-oxopentyl]amino]benzenepropanoate]: half-maximal inhibition in assay [2] (IC50) was put at 5.3 µM. Moreover, the inhibition in vivo at 10 mg/kg in assay [1] (dose 10 mg/Kg) was determined as 83%. Further, in assay [1] (dose 30 mg/Kg), the inhibition in vivo at 30 mg/kg was found to be 100% and the Duration was above 24 h.
With `CCOC(=O)CC(CC(C)C)NC(=O)CCCCc1ccc(C(=N)N)cc1` (centres unmarked) [ethyl 3-[[5-[4-(aminoiminomethyl)phenyl]-1-oxopentyl]amino]-5-methylhexanoate], in assay [1] (dose 30 mg/Kg), the inhibition in vivo at 30 mg/kg amounted to 100% and the Duration was above 6 h.
Turning to `N=C(N)c1ccc(CCCCC(=O)NC(CC(=O)O)Cc2ccccc2)cc1` (stereo not drawn) [β-[5-[4-(Aminoiminomethyl)phenyl]-1-oxopentyl]amino]benzenebutanoic acid], the concentration for half-maximal inhibition (IC50) in assay [2] was determined as 3 µM. This counts as single-digit micromolar.
On the same count and under the same terms, the figure for `N=C(N)c1ccc(CCCCC(=O)NCCC(=O)O)cc1` [N-[5-[4 (aminoiminomethyl)phenyl]-1-oxopentyl]-β-alanine] is 6 µM.
With `N=C(N)c1ccc(CCCCC(=O)NC(CC(=O)OC2CCCCC2)c2cccnc2)cc1` (stereo not drawn) [cyclohexyl β-[[5-[4-(aminoiminomethyl)phenyl]-1-oxopentyl]amino]-3-pyridinepropanoate], in assay [2], half-maximal inhibition (IC50) required 2.3 µM. Also, in assay [1] (dose 10 mg/Kg), the inhibition in vivo at 10 mg/kg is 87% and the Duration was found to be 3 h.
As for `COc1ccc(C(CC(=O)O)NC(=O)CCCCc2ccc(C(=N)N)cc2)c(O)c1` (racemic) [(±)-β-[[5-[4-(aminoiminomethyl)phenyl]-1-oxopentyl]amino]-2-hydroxy-4-methoxybenzenepropanoic acid], the IC50 in assay [2] came out at 0.69 µM. This counts as sub-micromolar.
As to `CCOC(=O)CC(Cc1ccccc1)NC(=O)CCCCc1ccc(C(=N)N)cc1` (stereo not drawn) [ethyl β-[[5-[4-(aminoiminomethyl)phenyl]-1-oxopentyl]amino]benzenebutanoate], in assay [1] (dose 20 mg/Kg), the inhibition in vivo at 20 mg/kg worked out at 30% and the Duration was 1.5 h.
For `CCOC(=O)CC(NC(=O)CCCCc1ccc(C(=N)N)cc1)c1cc(OC)cc(OC)c1` (stereo not drawn) [ethyl β-[[5-[4-(aminoiminomethyl)phenyl]-1-oxopentyl]amino]-3,5-dimethoxybenzenepropanoate], in that order: 70% and 4 h.
As for `N=C(N)c1ccc(C#CCCC(=O)NC(CC(=O)O)c2ccccc2)cc1` (stereo not drawn) [β-[[5-[4-(aminoiminomethyl)phenyl]-1-oxo-4-pentynyl]amino]benzenepropanoic acid], the midpoint of inhibition in assay [2], the IC50, lay at 1.8 µM.
With `CCOC(=O)CC(NC(=O)CCCCc1ccc(C(=N)N)cc1)c1cccnc1` (stereo not drawn) [ethyl β-[[5-[4-(aminoiminomethyl)phenyl]-1-oxopentyl]amino]-3-pyridinepropanoate], the inhibition in vivo at 10 mg/kg in assay [1] (dose 10 mg/Kg) was determined as 100%. In addition, in assay [1] (dose 20 mg/Kg), the inhibition in vivo at 20 mg/kg is 100% and the Duration was above 24 h.
For the compound `N=C(N)c1ccc(CCCCC(=O)NC(CC(=O)O)c2ccc(F)cc2)cc1` (stereo not drawn) [β-[[5-[4-(aminoiminomethyl)phenyl]-1-oxopentyl]amino]-4-fluorobenzenepropanoic acid], in assay [2], the IC50 was 3 µM.
On the same count and under the same terms, the figure for `CC(CCC(=O)NC(C)CC(=O)O)Cc1ccc(C(=N)N)cc1` (centres unmarked) [3-[[5-[4-(aminoiminomethyl)phenyl]-4-methyl-1-oxopentyl]amino]butanoic acid] is 1.25 µM; for `N=C(N)c1ccc(CCCCC(=O)NCC(O)C(=O)O)cc1` (stereo not drawn) [N-[5-[4-(Aminoiminomethyl)phenyl]-1-oxopentyl]-2-hydroxy-β-alanine] it is 10 µM.
With `CC(CC(=O)O)NC(=O)CCCCc1ccc(C(=N)N)cc1` (centres unmarked) [3-[[5-[4-(Aminoiminomethyl)phenyl]-1-oxopentyl]amino]butanoic acid], the IC50 in assay [2] was determined as 1.2 µM. For the same compound, in assay [1] (dose 10 mg/Kg), the inhibition in vivo at 10 mg/kg came out at 80% and the Duration came out at 5 h.
Regarding `N=C(N)c1ccc(CCCCC(=O)NC(CCc2ccccc2)CC(=O)O)cc1` (stereo not drawn) [β-[[5-[4-(aminoiminomethyl)phenyl]-1-oxopentyl]amino]benzenepentanoic acid], the IC50 in assay [2] was found to be 3 µM.
Still for that read-out and setting: then `N=C(N)c1ccc(CCCCC(=O)NC(CC(=O)O)C2CC=CCC2)cc1` (stereo not drawn) [β-[[5-[4-(aminoiminomethyl)phenyl]-1-oxopentyl]amino]-3-cyclohexene-1-propanoic acid], with 4 µM.
On the same count and under the same terms, the figure for `N=C(N)c1ccc(CCCCC(=O)NC(CC(=O)O)c2ccc(-c3ccccc3)cc2)cc1` (stereo not drawn) [β-[[5-[4-(Aminoiminomethyl)phenyl)-1-oxopentyl]amino][1,1'-biphenyl]-4-propanoic acid, acetate salt] is 2.3 µM; for `N=C(N)c1ccc(CCCCC(=O)NC(CC(=O)O)c2ccc(Cl)c(Cl)c2)cc1` (stereo not drawn) [β-[[5-[4-(aminoiminomethyl)phenyl]-1-oxopentyl]amino]-3,4-dichlorobenzenepropanoic acid] it is 6.8 µM; for `N=C(N)c1ccc(CCCCC(=O)NC(CC(=O)O)c2ccccc2F)cc1` (stereo not drawn) [β-[[5-[4-(aminoiminomethyl)phenyl]-1-oxopentyl]amino]-2-fluorobenzenepropanoic acid] it is 5.2 µM.
The same measure, in the same setting: the figure for `N=C(N)c1ccc(CCCCC(=O)NC(CC(=O)O)c2cc(Cl)cc(Cl)c2)cc1` (stereo not drawn) [β-[[5-[4-(aminoiminomethyl)phenyl]-1-oxopentyl]amino]-3,5-dichlorobenzenepropanoic acid] is 6 µM; for `N=C(N)c1ccc(CCCCC(=O)NCC(F)C(=O)O)cc1` (stereo not drawn) [N-[5-[4-(Aminoiminomethyl]phenyl]-1-oxopentyl]-2-fluoro-β-alanine] it is 30 µM.
Take `CCOC(=O)CC(CCc1ccccc1)NC(=O)CCCCc1ccc(C(=N)N)cc1` (stereo not drawn) [ethyl β-[[5-[4-(aminoiminomethyl)phenyl]-1-oxopentyl]amino]benzenepentanoate]: the inhibition in vivo at 30 mg/kg in assay [1] (dose 30 mg/Kg) came out at 0%.
